Test results as given in article PMC8878468, “Image-Based Annotation of Chemogenomic Libraries for Phenotypic Screening” (Molecules, 2022).
Structures can show the parent of a compound that is named as a salt. Where two headings read alike, the source gives them in different places.

How the values were obtained:
U2OS cells [1] = test: Multiplex high-content protocol (nuclei gating, tubulin, mitochondrial mass, membrane permeability); type: cell-based, human; details: for mitochondrial mass increase detected / marked for tubulin effects while crossing no other phenotypic threshold: threshold > 50%; for viability at 1 µM: Homo sapiens, read-out: healthy nuclei
Protocol: Using the CQ1 high-content confocal microscope (Yokogawa), cellular shape and fluorescence was measured before and 12 h as well as 24 h after compound treatment. All compounds were diluted in DMSO to a concentration of 10 mM.
The rather large spacing distance was used to create a robust readout, compensating potential plate variations and enabling automated screening without the use of autofocus. The overlap of the fluorescence emission spectra of the dyes was neglectable for all but the MitoTracker Red and Annexin V Alexa Fluor 680 (Supplementary Figure S9).
All images were analyzed using the CellPathfinder software (Yokogawa). Segmentation of cells was performed as described earlier. First, the cells are classified in Hoechst High Intensity Objects or Normal Intensity Objects (Supplementary Table S7). All normal gated cells are further classified in healthy, fragmented or pyknosed nuclei (Supplementary Table S7). The pyknosed cells are gated in mitotic or apoptotic cells using seven features for the cell body and five features for the cell nuclei according to their Annexin V staining intensity (Supplementary Table S7). All cells that were classified as including a healthy nucleus are further gated into three phenotypic classes. […] Growth rate was calculated against non-treated cells and cells treated with DMSO 0.1% [61].

U2OS cells [2] = test: cells; details: Homo sapiens
HCT116-FUCCI cells [3] = system: HCT116-FUCCI cells; set-up: method as in per compound as in column reference of Table S3; details: literature annotation in Table S3; ref per compound as in Table S3; cited from earlier work
HCT116-FUCCI cells [4] = test: FUCCI cell cycle assay with nuclear gating; type: cell-based, human; details: 10 µM, up to 70 h
Protocol: For generation of a stable cell line, including the florescent ubiquitination-base cell cycle indicator FUCCI, the plasmid-based transposon system Sleeping Beauty was used. Vector (pSBbi_Fucci) and the Transposase SB100X have been described previously. […] Two days after transfection, cells were selected over 10 days using puromycin (1 µg/mL) and cultivated afterwards for two more weeks in McCoys 5A plus L-Glutamine (Gibco) supplemented by 10% FBS (Gibco) and Penicillin/Streptomycin (Gibco).
Fluorescence and cellular shape were measured before and after compound treatment for 72 h every 12 h using the CQ1 high-content confocal microscope (Yokogawa). […]
Image analysis was performed using the CellPathfinder software (Yokogawa). Segmentation of cells was performed as described earlier. First, the cells are classified in Hoechst High Intensity Objects or Normal Intensity Objects (Supplementary Table S7). All normal gated cells are further classified in healthy, fragmented or pyknosed nuclei (Supplementary Table S7). […] Total cell count was normalized against total cell count of cells treated with 0.1% DMSO.

In the case of `Cc1cc(C)cc(-c2cnc3cc(Cl)c(-c4cccc(O)c4)cc3c2OCCCN)c1` [TC-G 1003], the “mitochondrial mass increase detected” value (U2OS cells [1]; U2OS, 1 µM) is reported as “mitochondrial mass increase”.
In the case of `CN1CCN(Cc2ccc(Nc3ncc(Cl)c(Nc4ccccc4S(=O)(=O)N(C)C)n3)cc2)CC1` [TP0903], the viability at 1 µM (U2OS cells [1]; U2OS, 1 µM, 24 h) is reported as ≤ 40% and the “decrease of healthy nuclei count” value (U2OS cells [1]; U2OS, 1 µM) is reported as “more than 60%”.
For `C=CC(=O)Nc1cccc(Oc2nc(Nc3ccc(N4CCN(C)CC4)cc3OC)ncc2Cl)c1` [WZ-4002], the effect on tubulin (U2OS cells [1]; 1 µM, 12 h) was “effect on tubulin” and the membrane permeabilization effects (U2OS cells [1]; U2OS, 1 µM, 24 h) was “membrane permeabilization”.
With `CCOc1cc(C(=O)N2CCC(N3CCN(C)CC3)CC2)ccc1Nc1ncc2c(n1)N(C1CCCC1)c1ccccc1C(=O)N2C` [XMD17-109] the “mitochondrial mass increase detected” value (U2OS cells [1]; U2OS, 1 µM) was “mitochondrial mass increase”.
With `Nc1ccc(C(=O)Nc2cccc(-c3nc(N4CCOCC4)c4oc5ncccc5c4n3)c2)cn1` [YM-201636] the “marked for tubulin effects while crossing no other phenotypic threshold” value (U2OS cells [1]; U2OS, 1 µM) was “marked to have tubulin effects”.
For `COc1cc2c(Nc3ccc(NC(=O)c4ccccc4)cc3)ncnc2cc1OCCCN1CCOCC1` [ZM447439], the “marked for tubulin effects while crossing no other phenotypic threshold” value (U2OS cells [1]; U2OS, 1 µM) was “marked to have tubulin effects”.
For `C=CCn1c(=O)c2cnc(Nc3ccc(N4CCN(C)CC4)cc3)nc2n1-c1cccc(C(C)(C)O)n1` [adavosertib], the viability at 1 µM (U2OS cells [1]; U2OS, 1 µM, 24 h) was ≤ 40%.
In the case of `CN1CCCC(n2nc(Cc3ccc(Cl)cc3)c3ccccc3c2=O)CC1` (centres unmarked) [azelastine], the “mitochondrial mass increase detected” value (U2OS cells [1]; U2OS, 1 µM) is reported as “mitochondrial mass increase”.
With `CNCc1ccc(-c2cc(-c3nc(-c4ccc(S(=O)(=O)C(C)C)cc4)cnc3N)on2)cc1` [berzosertib] the “Hoechst High Intensity Objects (Hoechst intensity compared to normal nuclei)” value (U2OS cells [1]; U2OS, 1 µM) was “more than 50%”, the IC50 (U2OS cells [2]; 14 h, read-out: IC 50 14 h) was 0.0627 µM and the IC50 (U2OS cells [2]; 26 h, read-out: IC 50 26 h) was 0.0641 µM. It also gave an IC50 (U2OS cells [2]; 42 h, read-out: IC 50 42 h) of 0.0587 µM and an IC50 (U2OS cells [2]; 56 h, read-out: IC 50 56 h) of 0.0565 µM.
With `C[C@@H]1CC[C@@]2(OC1)O[C@H]1[C@@H](O)[C@H]3[C@@H]4CC[C@H]5C[C@@H](O[C@@H]6O[C@H](CO)[C@H](O[C@@H]7O[C@H](CO)[C@@H](O)[C@H](O[C@@H]8OC[C@@H](O)[C@H](O)[C@H]8O)[C@H]7O[C@@H]7O[C@H](CO)[C@H](O)[C@H](O[C@@H]8O[C@H](CO)[C@@H](O)[C@H](O)[C@H]8O)[C@H]7O)[C@H](O)[C@H]6O)[C@H](O)C[C@]5(C)[C@H]4CC[C@]3(C)[C@H]1[C@@H]2C` [digitonin] the “healthy nuclei (healthy cells)” value (U2OS cells [1]; U2OS, 10 µM, 24 h) was “more than 50%”, the IC50 (U2OS cells [2]; 14 h, read-out: IC 50 14 h) was 10.6 µM and the IC50 (U2OS cells [2]; 26 h, read-out: IC 50 26 h) was 11.6 µM. The IC50 (U2OS cells [2]; 42 h, read-out: IC 50 42 h) was 11.5 µM and the IC50 (U2OS cells [2]; 56 h, read-out: IC 50 56 h) was 15.1 µM.
For `CCN1CCN(c2ccc(Nc3cc(N(C)C(=O)Nc4c(Cl)c(OC)cc(OC)c4Cl)ncn3)cc2)CC1` [infigratinib], the viability at 1 µM (U2OS cells [1]; U2OS, 1 µM, 24 h) was ≤ 40%.
With `COc1ncc(-c2ccc3nccc(-c4ccnnc4)c3c2)cc1NS(=O)(=O)c1ccc(F)cc1F` [omipalisib] the viability at 1 µM (U2OS cells [1]; U2OS, 1 µM, 24 h) was ≤ 40% and the “decrease of healthy nuclei count” value (U2OS cells [1]; U2OS, 1 µM) was “more than 60%”.
In the case of `COc1ccc(C[C@H](N)C(=O)N[C@H]2[C@@H](O)[C@H](n3cnc4c(N(C)C)ncnc43)O[C@@H]2CO)cc1` [puromycin], the “mitochondrial mass, first analysis gating all cells independently of viability” value (U2OS cells [1]; 10 µM) is reported as “increased mitochondrial mass”, the “tubulin effect, first analysis gating all cells independently of viability” value (U2OS cells [1]; 10 µM) is reported as “tubulin effects” and the “healthy nuclei (healthy cells)” value (U2OS cells [1]; U2OS, 10 µM, 24 h) is reported as “less than 50%”. For the same compound, the “known cell cycle effect” value (HCT116-FUCCI cells [3]) was “effect on cell cycle”.
Compound `O=C(CCCCCCNC(=O)c1cnc(N(c2ccccc2)c2ccccc2)nc1)NO` [ricolinostat] has an IC50 (U2OS cells [2]; 26 h, read-out: IC 50 26 h) of 13.5 µM, an IC50 (U2OS cells [2]; 42 h, read-out: IC 50 42 h) of 13.4 µM and an IC50 (U2OS cells [2]; 56 h, read-out: IC 50 56 h) of 13.7 µM.
For `CN[C@@H]1C[C@H]2O[C@@](C)([C@@H]1OC)n1c3ccccc3c3c4c(c5c6ccccc6n2c5c31)C(=O)NC4` [staurosporine], the “mitochondrial mass, first analysis gating all cells independently of viability” value (U2OS cells [1]; 10 µM) was “increased mitochondrial mass”, the “tubulin effect, first analysis gating all cells independently of viability” value (U2OS cells [1]; 10 µM) was “tubulin effects” and the “healthy nuclei (healthy cells)” value (U2OS cells [1]; U2OS, 10 µM, 24 h) was “less than 50%”. For the same compound, the “known cell cycle effect” value (HCT116-FUCCI cells [3]) was “dose-dependent cell”.
With `CC[C@@]1(O)C(=O)OCc2c1cc1n(c2=O)Cc2cc3c(CN(C)C)c(O)ccc3nc2-1` [topotecan] the “change of FUCCI nuclei population in comparison to DMSO” value (HCT116-FUCCI cells [4]) was “increase in green nuclei”, the “mitochondrial mass increase detected” value (U2OS cells [1]; U2OS, 1 µM) was “mitochondrial mass increase” and the “healthy nuclei (healthy cells)” value (U2OS cells [1]; U2OS, 10 µM, 24 h) was “less than 50%”. The “Hoechst High Intensity Objects” value (U2OS cells [1]; U2OS, 10 µM, after 24 h, in one of two biological replicates) was > 30%.
For `CC(=O)Nc1cccc(-n2c(=O)n(C3CC3)c(=O)c3c(Nc4ccc(I)cc4F)n(C)c(=O)c(C)c32)c1` [trametinib], the “change of FUCCI nuclei population in comparison to DMSO” value (HCT116-FUCCI cells [4]) was “increase in red nuclei”.
With `CCC1=C[C@@H]2CN(C1)Cc1c([nH]c3ccccc13)[C@@](C(=O)OC)(c1cc3c(cc1OC)N(C)[C@H]1[C@@](O)(C(=O)OC)[C@H](OC(C)=O)[C@]4(CC)C=CCN5CC[C@]31[C@@H]54)C2` [vinorelbine tartrate] the tubulin effect (U2OS cells [1]; U2OS, 10 µM, 24 h, healthy nuclei only) was “increased tubulin effects”.
In the case of `CC[C@@H]1C(=O)N(C)c2cnc(Nc3ccc(C(=O)N[C@H]4CC[C@H](N5CCN(CC6CC6)CC5)CC4)cc3OC)nc2N1C(C)C` [volasertib], the viability at 1 µM (U2OS cells [1]; U2OS, 1 µM, 24 h) is reported as ≤ 40%.
